Test results from article PMC5570656 (Journal of medicinal chemistry, 2017).
Structures can show the parent of a compound that is named as a salt. Values belong to the compound of their own block, whether it stands above or below them.

Tests used:
Caco-2 = conditions: in words, previously designed inhibitors; cited from earlier work
[1] = tested on: 45 different CNS targets and receptors; conditions: of 45 targets, cited from earlier work
[2] = rats, in words, earlier work; cited from earlier work
nNOS = nNOS (Homo sapiens, UniProt P29475); experiment: Stability of stored compound solutions; assay type: physicochemical; conditions: solutions stored for longer periods of time (ca. one week)
[3] = in words
murine macrophage iNOS = murine macrophage iNOS (Mus musculus, UniProt P29477); conditions: ratio of respective Ki values
bovine eNOS = bovine eNOS (Bos taurus, UniProt P29473); conditions: ratio of respective Ki values
[4] = mice, in words, earlier work; cited from earlier work

Chain of murine macrophage iNOS (P29477 whole entry): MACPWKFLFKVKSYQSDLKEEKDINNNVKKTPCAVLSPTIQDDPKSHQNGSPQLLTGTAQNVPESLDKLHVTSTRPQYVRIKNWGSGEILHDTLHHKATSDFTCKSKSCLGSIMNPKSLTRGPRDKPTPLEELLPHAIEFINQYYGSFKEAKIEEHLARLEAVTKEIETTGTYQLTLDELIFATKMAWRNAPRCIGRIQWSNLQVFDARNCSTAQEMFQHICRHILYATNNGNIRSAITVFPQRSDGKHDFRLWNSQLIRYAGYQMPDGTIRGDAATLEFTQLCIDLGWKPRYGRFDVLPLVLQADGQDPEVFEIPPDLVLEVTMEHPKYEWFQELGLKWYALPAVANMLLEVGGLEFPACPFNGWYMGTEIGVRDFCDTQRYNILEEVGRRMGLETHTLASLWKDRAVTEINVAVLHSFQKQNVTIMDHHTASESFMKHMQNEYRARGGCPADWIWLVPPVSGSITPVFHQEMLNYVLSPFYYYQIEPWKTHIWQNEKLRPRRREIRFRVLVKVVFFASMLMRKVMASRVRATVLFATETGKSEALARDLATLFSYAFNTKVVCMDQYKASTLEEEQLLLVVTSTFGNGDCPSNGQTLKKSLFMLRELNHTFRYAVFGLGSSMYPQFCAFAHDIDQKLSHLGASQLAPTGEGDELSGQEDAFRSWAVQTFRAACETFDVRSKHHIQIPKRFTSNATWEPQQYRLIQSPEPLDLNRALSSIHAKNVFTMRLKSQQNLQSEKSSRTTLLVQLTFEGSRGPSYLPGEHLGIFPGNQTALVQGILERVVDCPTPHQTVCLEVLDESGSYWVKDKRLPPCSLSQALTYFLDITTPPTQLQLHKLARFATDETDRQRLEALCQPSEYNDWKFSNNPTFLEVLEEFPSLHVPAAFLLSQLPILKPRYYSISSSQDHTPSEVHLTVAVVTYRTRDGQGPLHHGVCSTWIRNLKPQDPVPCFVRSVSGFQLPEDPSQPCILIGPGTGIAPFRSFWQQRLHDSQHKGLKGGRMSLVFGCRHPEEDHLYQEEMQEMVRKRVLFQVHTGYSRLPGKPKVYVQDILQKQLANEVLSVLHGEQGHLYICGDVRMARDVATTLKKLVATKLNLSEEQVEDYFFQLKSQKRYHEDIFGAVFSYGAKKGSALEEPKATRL
Chain of nNOS (P29475 whole entry): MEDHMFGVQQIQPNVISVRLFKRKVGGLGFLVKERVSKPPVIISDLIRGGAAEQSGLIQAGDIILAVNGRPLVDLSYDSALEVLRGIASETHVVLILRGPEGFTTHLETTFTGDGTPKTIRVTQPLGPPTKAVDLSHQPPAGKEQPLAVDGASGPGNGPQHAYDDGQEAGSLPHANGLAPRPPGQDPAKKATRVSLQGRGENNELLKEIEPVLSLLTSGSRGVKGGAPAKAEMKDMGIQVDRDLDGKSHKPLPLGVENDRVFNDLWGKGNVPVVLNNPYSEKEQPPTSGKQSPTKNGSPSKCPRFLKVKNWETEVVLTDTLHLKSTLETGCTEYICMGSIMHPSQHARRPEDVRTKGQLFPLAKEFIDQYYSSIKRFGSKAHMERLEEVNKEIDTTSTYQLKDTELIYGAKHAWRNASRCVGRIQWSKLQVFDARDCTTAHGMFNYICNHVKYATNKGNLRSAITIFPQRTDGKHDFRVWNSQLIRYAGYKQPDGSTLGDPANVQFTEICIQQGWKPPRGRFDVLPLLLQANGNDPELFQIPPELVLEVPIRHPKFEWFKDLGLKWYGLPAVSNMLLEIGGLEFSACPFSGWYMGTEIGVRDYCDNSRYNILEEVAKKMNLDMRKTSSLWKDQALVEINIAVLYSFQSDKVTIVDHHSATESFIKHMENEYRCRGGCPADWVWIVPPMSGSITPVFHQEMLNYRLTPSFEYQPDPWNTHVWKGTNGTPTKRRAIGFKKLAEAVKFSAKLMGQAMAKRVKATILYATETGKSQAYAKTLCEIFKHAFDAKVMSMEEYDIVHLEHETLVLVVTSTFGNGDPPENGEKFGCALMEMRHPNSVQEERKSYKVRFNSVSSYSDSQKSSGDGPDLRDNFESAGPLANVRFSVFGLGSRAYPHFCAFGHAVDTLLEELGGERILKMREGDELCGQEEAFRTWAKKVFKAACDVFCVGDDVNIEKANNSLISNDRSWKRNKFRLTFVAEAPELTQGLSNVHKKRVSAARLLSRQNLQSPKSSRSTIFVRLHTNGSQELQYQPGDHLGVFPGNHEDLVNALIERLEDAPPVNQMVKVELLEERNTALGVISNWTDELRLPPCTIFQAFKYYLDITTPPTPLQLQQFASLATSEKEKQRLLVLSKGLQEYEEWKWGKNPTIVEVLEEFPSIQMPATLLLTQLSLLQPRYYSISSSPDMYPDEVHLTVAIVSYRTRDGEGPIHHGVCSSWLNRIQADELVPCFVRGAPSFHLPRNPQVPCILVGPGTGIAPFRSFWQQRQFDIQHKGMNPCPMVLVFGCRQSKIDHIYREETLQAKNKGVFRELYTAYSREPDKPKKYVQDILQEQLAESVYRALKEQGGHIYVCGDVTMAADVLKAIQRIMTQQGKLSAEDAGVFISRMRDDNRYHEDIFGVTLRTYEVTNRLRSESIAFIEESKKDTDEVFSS
Chain of bovine eNOS (P29473 whole entry): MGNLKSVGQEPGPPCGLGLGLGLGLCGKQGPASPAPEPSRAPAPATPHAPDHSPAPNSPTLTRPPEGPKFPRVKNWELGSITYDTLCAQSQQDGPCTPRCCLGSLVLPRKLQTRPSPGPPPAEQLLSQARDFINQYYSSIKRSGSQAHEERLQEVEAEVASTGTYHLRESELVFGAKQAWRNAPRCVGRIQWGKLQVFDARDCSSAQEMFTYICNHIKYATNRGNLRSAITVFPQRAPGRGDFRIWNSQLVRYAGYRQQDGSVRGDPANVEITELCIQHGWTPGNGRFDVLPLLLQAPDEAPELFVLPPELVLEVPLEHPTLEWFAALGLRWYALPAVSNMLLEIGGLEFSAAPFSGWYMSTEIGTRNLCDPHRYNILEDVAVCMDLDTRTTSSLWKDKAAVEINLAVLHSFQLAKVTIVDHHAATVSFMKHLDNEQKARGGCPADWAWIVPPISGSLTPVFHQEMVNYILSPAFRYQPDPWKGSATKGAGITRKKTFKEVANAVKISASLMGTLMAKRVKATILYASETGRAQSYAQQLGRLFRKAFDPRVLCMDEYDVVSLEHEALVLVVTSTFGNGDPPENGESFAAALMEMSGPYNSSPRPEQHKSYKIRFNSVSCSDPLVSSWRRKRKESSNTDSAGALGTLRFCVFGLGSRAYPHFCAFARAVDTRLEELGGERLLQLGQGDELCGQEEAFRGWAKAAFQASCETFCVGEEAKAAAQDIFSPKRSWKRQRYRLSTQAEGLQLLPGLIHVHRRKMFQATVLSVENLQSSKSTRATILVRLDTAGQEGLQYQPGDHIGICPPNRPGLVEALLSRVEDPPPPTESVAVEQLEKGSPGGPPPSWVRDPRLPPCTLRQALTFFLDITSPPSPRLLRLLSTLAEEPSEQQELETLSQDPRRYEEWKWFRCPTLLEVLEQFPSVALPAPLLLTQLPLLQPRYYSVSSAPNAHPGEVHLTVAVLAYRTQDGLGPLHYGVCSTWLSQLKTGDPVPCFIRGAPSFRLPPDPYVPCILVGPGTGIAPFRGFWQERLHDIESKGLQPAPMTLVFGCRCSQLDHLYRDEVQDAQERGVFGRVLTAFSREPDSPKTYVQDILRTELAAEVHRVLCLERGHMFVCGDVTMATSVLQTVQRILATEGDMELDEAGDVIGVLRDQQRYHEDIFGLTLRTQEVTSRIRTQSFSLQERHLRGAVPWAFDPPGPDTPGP

Structure (SMILES): CNCc1cc(OCc2ccc3ccc(N)nc3c2)ccc1Cl [Compound 6]
Caco-2 permeability (Caco-2): poor
PDSP number of targets classified Moderate ([1]; 100-300 nM): 3
PDSP number of targets classified Insignificant ([1]; <50% bound at 10 μM): 22
PDSP number of targets classified Weak ([1]; >300 nM): 17
PDSP number of targets classified Concerning ([1]; Ki <100 nM): 3

Structure (SMILES): Nc1ccc2ccc(CCNCCc3cccc(Cl)c3)cc2n1 [Compound 5]
brain penetration [2]: brain penetration

Structure (SMILES): CN(C)c1cccc(CCNCc2ccc3ccc(N)nc3c2)c1 [Compound 14, 3-(Dimethylamino)phenethyl)amino)methyl)quinolin-2-amine Trihydrochloride]
stability of solutions (nNOS): lost their nNOS inhibitory activity

solubility [3]: poor
Structure (SMILES): N#Cc1cccc(NCc2ccc3ccc(N)nc3c2)c1 [Compound 7, 3-(((2-Aminoquinolin-7-yl)methyl)amino)benzonitrile Dihydrochloride]

Selectivity rn/mi (murine macrophage iNOS): 71
Selectivity rn/be (bovine eNOS): 16
Structure (SMILES): CN(C)c1cccc(CNCc2ccc3ccc(N)nc3c2)c1 [Compound 12, 7-(((3-(Dimethylamino)benzyl)amino)methyl)quinolin-2-amine Trihydrochloride]

Structure (SMILES): Nc1ccc2ccc(CCNCCc3cccc(F)c3)cc2n1 [Compound 4]
oral bioavailability [4]: good
